Question: For `C(#Cc1ccc2ccccc2c1)c1ccccc1` [2-(phenylethynyl)naphthalene], which melting point is on record?
Answer: 117 °C

Question: For `CC(=O)c1ccc2ccccc2c1` [2-Acetylnaphthalene], which melting point is on record?
Answer: 55 °C

Question: For `CC(C)(N)CO` [2-Amino-2-methylpropan-1-ol], which melting point is on record?
Answer: 30 °C

Question: With `CC(N)(CO)CO` [2-Amino-2-methylpropane-1,3-diol] as the molecule, how does the melting point read?
Answer: 111 °C

Question: Which melting point does the source give for `N#Cc1c(N)sc2c1CCCC2` [2-Amino-4,5,6,7-tetrahydrobenzo(b)thiophene-3-carbonitrile] here?
Answer: 143 °C

Question: Which melting point does the source give for `CP(=O)(O)CC[C@@H](N)C(=O)O` [2-Amino-4-(Hydroxymethyl-Phosphinyl)Butanoic Acid] here?
Answer: 230 °C

Question: For `NCCO` [2-Aminoethanol], which melting point is on record?
Answer: 11 °C

Question: For `CC12CCC(C(C(c3ccccc3)c3ccccc3)C1=O)C2(C)C` (stereo unspecified) [2-Bornanone, 3-(diphenylmethyl)-], which melting point is on record?
Answer: 107 °C

Question: For `CCCCOCCO` [2-Butoxyethanol], which melting point is on record?
Answer: -75 °C

Question: Which melting point does the source give for `Nc1ccc([N+](=O)[O-])cc1Cl` [2-Chloro-4-nitroaniline] here?
Answer: 108 °C

Question: With `O=C(O)c1ccccc1Cl` [2-Chlorobenzoic acid] as the molecule, how does the melting point read?
Answer: 140 °C

Question: With `CCc1ccc2c(c1)C(=O)c1ccccc1C2=O` [2-Ethylanthraquinone] as the molecule, how does the melting point read?
Answer: 109 °C

Question: For `CCC1CO1` (stereo unspecified) [2-Ethyloxirane], which melting point is on record?
Answer: -60 °C

Question: Which melting point does the source give for `Nc1ccccc1F` [2-Fluoroaniline] here?
Answer: -34.6 °C

Question: With `O=Cc1ccco1` [2-Furaldehyde] as the molecule, how does the melting point read?
Answer: -36 °C

Question: Which melting point does the source give for `O=C1C=C(O)C(=O)c2ccccc21` [2-Hydroxy-1,4-naphthoquinone] here?
Answer: 192 °C

Question: For `O=C(O)Cc1ccccc1O` [2-Hydroxyphenylacetic acid], which melting point is on record?
Answer: 149 °C

Question: For `CC(C)I` [2-Iodopropane], which melting point is on record?
Answer: -90 °C

Question: With `COC(C)(C)C` [2-Methoxy-2-methylpropane] as the molecule, how does the melting point read?
Answer: -109 °C

Question: Which melting point does the source give for `COc1ccc([N+](=O)[O-])cc1N` [2-Methoxy-5-nitroaniline] here?
Answer: 118 °C

Question: Which melting point does the source give for `Cc1cc(O)ccc1O` [2-Methylbenzene-1,4-diol] here?
Answer: 129 °C

Question: With `C=C(C)CC` [2-Methylbut-1-ene] as the molecule, how does the melting point read?
Answer: -137 °C

Question: For `C/C(C)=CCC` [2-Methylpent-2-ene], which melting point is on record?
Answer: -135 °C

Question: For `CCCCCCCCCCCCCC(C)C` [2-Methylpentadecane], which melting point is on record?
Answer: -7 °C

Question: With `Nc1ccccc1[N+](=O)[O-]` [2-Nitroaniline] as the molecule, how does the melting point read?
Answer: 72 °C

Question: For `O=[N+]([O-])c1ccco1` [2-Nitrofuran], which melting point is on record?
Answer: 31 °C

Question: For `O=[N+]([O-])c1ccccc1O` [2-Nitrophenol], which melting point is on record?
Answer: 44 °C

Question: Which melting point does the source give for `CC(=O)C(=O)O` [2-Oxopropanoic acid] here?
Answer: 12 °C

Question: With `C1=C(c2ccccc2)Cc2ccccc21` [2-Phenylindene] as the molecule, how does the melting point read?
Answer: 167 °C

Question: Which melting point does the source give for `O/N=C(/C=C/c1ccccc1)c1ccccc1` [2-Propen-1-one, 1,3-diphenyl-, oxime, (E,Z)-] here?
Answer: 116 °C

Question: With `CCCOCCO` [2-Propoxyethanol] as the molecule, how does the melting point read?
Answer: -75 °C

Question: With `O=S(=O)([O-])CCN1CC[NH+](CCO)CC1` [2-[4-(2-Hydroxyethyl)piperazin-4-ium-1-yl]ethanesulfonate] as the molecule, how does the melting point read?
Answer: 236 °C

Question: For `CCCC(C)(COC(N)=O)COC(N)=O` [2-[(Carbamoyloxy)methyl]-2-methylpentyl carbamate], which melting point is on record?
Answer: 105 °C

Question: Which melting point does the source give for `COc1ccc(/C=C/c2cccc(OC)c2O)cc1OC` [2-[(E)-2-(3,4-Dimethoxyphenyl)vinyl]-6-methoxyphenol] here?
Answer: 165 °C

Question: With `CC(=O)Nc1ccccc1C(=O)O` [2-acetamidobenzoic acid] as the molecule, how does the melting point read?
Answer: 186 °C

Question: With `CC(=O)Nc1ccccc1O` [2-acetamidophenol] as the molecule, how does the melting point read?
Answer: 208 °C

Question: With `CC(=O)c1sc(-c2ccccc2)cc1N` [2-acetyl-3-amino-5-phenylthiophene] as the molecule, how does the melting point read?
Answer: 121 °C

Question: Which melting point does the source give for `CC(=O)c1sccc1N` [2-acetyl-3-aminothiophene] here?
Answer: 86 °C

Question: Which melting point does the source give for `CC(=O)c1ccccc1C(=O)O` [2-acetylbenzoic_acid] here?
Answer: 116 °C

Question: For `CC(=O)c1ccccn1` [2-acetylpyridine], which melting point is on record?
Answer: 9 °C

Question: Which melting point does the source give for `CC(C)(N)CO` [2-amino-2-methyl-1-propanol] here?
Answer: 26 °C

Question: For `Nc1ncc(Br)cc1Br` [2-amino-3,5-dibromopyridine], which melting point is on record?
Answer: 104 °C

Question: Which melting point does the source give for `Nc1c(C(=O)O)cccc1C(F)(F)F` [2-amino-3-(trifluoromethyl)benzoic acid] here?
Answer: 155 °C

Question: With `Nc1cc([N+](=O)[O-])ccc1O` [2-amino-4-nitrophenol] [listing 1 of 2 here] as the molecule, how does the melting point read?
Answer: 144 °C

Question: For `Nc1cc([N+](=O)[O-])ccc1O` [2-amino-4-nitrophenol] [listing 2 of 2 here], which melting point is on record?
Answer: 143 °C

Question: For `Cc1cc(Br)cnc1N` [2-amino-5-bromo-3-methylpyridine], which melting point is on record?
Answer: 92 °C

Question: For `Nc1ncc(Br)cn1` [2-amino-5-bromopyrimidine], which melting point is on record?
Answer: 233 °C

Question: For `Nc1nnc(C2CC2)s1` [2-amino-5-cyclopropyl-1,3,4-thiadiazole], which melting point is on record?
Answer: 214 °C

Question: With `Nc1ccc(I)cn1` [2-amino-5-iodopyridine] as the molecule, how does the melting point read?
Answer: 128 °C

Question: For `Nc1ccccc1CO` [2-aminobenzyl alcohol], which melting point is on record?
Answer: 83 °C

Question: With `Oc1ccc(OCc2ccccc2)nc1` [2-benzyloxy-5-hydroxypyridine] as the molecule, how does the melting point read?
Answer: 92 °C

Question: With `O=C(O)Cc1ccccc1OCc1ccccc1` [2-benzyloxyphenylacetic acid] as the molecule, how does the melting point read?
Answer: 97 °C

Question: Which melting point does the source give for `OCc1ccccc1-c1ccccc1` [2-biphenylmethanol] here?
Answer: 49 °C

Question: Which melting point does the source give for `O=C1c2ccccc2CC1Br` (stereo unspecified) [2-bromo-1-indanone] here?
Answer: 38 °C

Question: Which melting point does the source give for `CC(C)(F)C(Br)C(=O)O` (stereo unspecified) [2-bromo-3-fluoroisovaleric acid] here?
Answer: 54 °C

Question: With `Cc1ccc(O)c(Br)c1` [2-bromo-4-methylphenol] as the molecule, how does the melting point read?
Answer: 16 °C

Question: For `O=[N+]([O-])c1cc[n+]([O-])c(Br)c1` [2-bromo-4-nitropyridine n-oxide], which melting point is on record?
Answer: 145 °C

Question: With `O=C(O)c1cc(Cl)ccc1Br` [2-bromo-5-chlorobenzoic acid] as the molecule, how does the melting point read?
Answer: 154 °C

Question: Which melting point does the source give for `Cc1ccc(C)c(Br)c1` [2-bromo-p-xylene] here?
Answer: 10 °C

Question: For `CC=C(C)Br` [2-bromo-trans-2-butene], which melting point is on record?
Answer: -115 °C

Question: With `COc1ccccc1Br` [2-bromoanisole] as the molecule, how does the melting point read?
Answer: 3 °C

Question: For `NC(=O)c1ccccc1Br` [2-bromobenzamide], which melting point is on record?
Answer: 161 °C

Question: For `OB(O)c1ccccc1Br` [2-bromobenzeneboronic acid], which melting point is on record?
Answer: 109 °C

Question: Which melting point does the source give for `N#Cc1ccccc1Br` [2-bromobenzonitrile] here?
Answer: 55 °C

Question: With `CCCC(C)Br` (stereo unspecified) [2-bromopentane] as the molecule, how does the melting point read?
Answer: -96 °C

Question: Which melting point does the source give for `Oc1ccccc1Br` [2-bromophenol] [listing 1 of 2 here] here?
Answer: 5.6 °C

Question: For `Oc1ccccc1Br` [2-bromophenol] [listing 2 of 2 here], which melting point is on record?
Answer: 5 °C

Question: Which melting point does the source give for `N#CCOc1ccccc1Br` [2-bromophenoxyacetonitrile] here?
Answer: 49 °C

Question: With `C=C(C)Br` [2-bromopropene] as the molecule, how does the melting point read?
Answer: -87 °C

Question: For `O=C(O)c1ccc(C(=O)O)c(Br)c1` [2-bromoterephthalic acid], which melting point is on record?
Answer: 299 °C

Question: With `CCC(C)=O` [2-butanone] as the molecule, how does the melting point read?
Answer: -86 °C

Question: For `CC#CC` [2-butyne], which melting point is on record?
Answer: -32 °C

Question: Which melting point does the source give for `O=S(=O)(Nc1ccccc1Cl)c1ccccc1` [2-chloro-1-phenylsulfonamidobenzene] here?
Answer: 125 °C

Question: With `CCc1cccc(CC)c1NC(=O)CCl` [2-chloro-2',6'-diethylacetanilide] as the molecule, how does the melting point read?
Answer: 130 °C

Question: Which melting point does the source give for `CCC(C)(C)Cl` [2-chloro-2-methylbutane] here?
Answer: -73 °C

Question: For `O=C(CCl)c1ccc(O)c(O)c1` [2-chloro-3',4'-dihydroxyacetophenone], which melting point is on record?
Answer: 174 °C

Source: the Bradley open melting point set (2014)
